Reference: patent US20030133958A1, “External agent for the skin and whitening agent” (priority 2000, published 2003)

What was measured:
B-16 melanoma cells [1] = assay: Cell-survival rate (cytotoxicity) in B-16 melanoma cell culture; type: cell-based
Text: (§1) The B-16 melanoma cell is one having an ability of producing melanin and therefore, the cells naturally grown by cell culture blacken. If a substance capable of inhibiting melanogenesis is present in the cell growth system during the cell growth, the blackening of the cells is inhibited and they relatively whiten. Accordingly, the whitening effect of each candidate substance can be evaluated on the basis of the degree of whiteness observed when adding a test sample relative to the degree of blackness observed for a control. […] To evaluate this cytotoxicity, the cell survival rate observed when adding a test sample to the system is compared with that observed for the control. Thus, the substantial whitening effect can be evaluated on the basis of the results of these cell-whitening test and cytotoxicity test.
The cell-survival rate at each added sample concentration can be determined according to the following formula
Cell-Survival Rate (%)=(A/B)×100
Wherein A represents the viable cell count observed for the system to which a sample is added and B represents the number of cells observed for the control system.

B-16 melanoma cells [2] = assay: Test for evaluating melanogenesis-inhibitory function (cell-whitening degree) in cell culture systems using B-16 melanoma cells; type: cell-based; set-up: key to Whitening degree: ++: The whitening degree is higher than that observed when adding 450 μg/mL of vitamin C-magnesium phosphate.; +: The whitening degree is almost identical to that observed when adding 450 μ g/mL of vitamin C-magnesium phosphate.; ±: The whitening degree is not higher than that observed when adding 450 μg/mL of vitamin C-magnesium phosphate, but higher than that of the control.; −: The whitening degree is almost identical to that observed for the control; settings: B-16 melanoma cells
Text: as §1
An example of such a method for evaluating the melanogenesis-inhibitory function in a cell culture system using B-16 melanoma cells comprises, for instance, the steps of dispensing 2 ml/well of a culture medium to each well of a 6-well plate, inoculating a desired amount of melanoma cells to the medium, cultivating the cells by allowing the medium to stand at 37° C. and a carbon dioxide concentration of 5%. On the following day, a solution of a test sample is added and mixed with the culture medium to a predetermined concentration and the cell cultivation is continued. After 5 days from the initiation of the cultivation, the culture medium is replaced with fresh one and the solution of the test sample is again added thereto. On the next day, the medium is removed to thus recover the cells, followed by washing them with PBS (phosphate-buffered saline) and the determination of the degree of whiteness to thus evaluate the whitening effect of the test sample. In this connection, the melanogenesis-inhibitory function is evaluated by comparing the results thus obtained with the degree of whiteness observed when the same procedures are repeated using the vitamin C-magnesium phosphate as a known whitening agent instead of the test sample solution (positive control) and that observed when the procedures are repeated without addition of any test sample (control).
A culture medium was dispensed to wells of a 6-well plate (2 mL/well each), followed by inoculation of a desired amount of B-16 melanoma cells on each well, allowing the wells to stand at 37° C. and 5% CO2 to thus cultivate the cells. On the day subsequent thereto, a sample solution prepared was added to the wells with stirring and the cultivation was continued. The culture medium was replaced with fresh one on the 5th day from the initiation of the cultivation and the sample solution was again added to the wells. On the next day, the culture medium was removed to recover the cells, followed by washing them with PBS (phosphate buffered physiological saline) and then evaluation of the cell-whitening degree In this respect, the melanogenesis-inhibitory function was evaluated by comparing the cell-whitening degree thus obtained with that observed when the same procedures used above were repeated except that vitamin C-magnesium phosphate as a known whitening agent (positive control) was substituted for the sample solution used above and that observed when the same procedures used above were repeated except that any sample was not added (control), according to the following evaluation criteria.
The evaluation criteria for the cell-whitening degree are as follows: […]

[3] = concentration 2 ppm, B-16 melanoma cells
[4] = concentration 4 ppm, B-16 melanoma cells
[5] = concentration 6 ppm, B-16 melanoma cells
[6] = concentration 8 ppm, B-16 melanoma cells
[7] = concentration 10 ppm, B-16 melanoma cells
[8] = concentration 15 ppm, B-16 melanoma cells
[9] = concentration 25 ppm, B-16 melanoma cells
[10] = concentration 50 ppm, B-16 melanoma cells

oil-solubility, in words (Solubility (oil / water)) | SMILES | Cell-Survival Rate (B-16 melanoma cells [1]; mouse, 10 ppm) [%] | Cell-Survival Rate (B-16 melanoma cells [1]; mouse, 15 ppm) [%] | Cell-Survival Rate (B-16 melanoma cells [1]; mouse, 25 ppm) [%] | Cell-Survival Rate (B-16 melanoma cells [1]; mouse, 50 ppm) [%] | Cell-Survival Rate (B-16 melanoma cells [1]; mouse, 100 ppm) [%] | Cell-Survival Rate (B-16 melanoma cells [1]; mouse, 200 ppm) [%] | Whitening degree (B-16 melanoma cells [2]; concentration 10 ppm) | Whitening degree (B-16 melanoma cells [2]; concentration 15 ppm) | Whitening degree (B-16 melanoma cells [2]; concentration 25 ppm) | Whitening degree (B-16 melanoma cells [2]; concentration 50 ppm) | Cell-Survival Rate (B-16 melanoma cells [1]; [3]) [%] | Cell-Survival Rate (B-16 melanoma cells [1]; [4]) [%] | Cell-Survival Rate (B-16 melanoma cells [1]; [5]) [%] | Cell-Survival Rate (B-16 melanoma cells [1]; [6]) [%] | Cell-Survival Rate (B-16 melanoma cells [1]; [7]) [%] | Whitening degree (B-16 melanoma cells [2]; concentration 2 ppm) | Whitening degree (B-16 melanoma cells [2]; concentration 4 ppm) | Whitening degree (B-16 melanoma cells [2]; concentration 6 ppm) | Whitening degree (B-16 melanoma cells [2]; concentration 8 ppm) | other results
 | OC[C@H]1O[C@@H](Oc2ccc(O)cc2)[C@H](O)[C@@H](O)[C@@H]1O [Arbutin, reference compound] | 100 | 100 | 100 | 86 | 69 | 56 | − | − | − | ± |  |  |  |  |  |  |  |  |  | Cell-Survival Rate (B-16 melanoma cells [1]; mouse, 300 ppm): 41%; Cell-Survival Rate (B-16 melanoma cells [1]; mouse, 450 ppm): 16%; Whitening degree (B-16 melanoma cells [2]; concentration 100 ppm): ±; Whitening degree (B-16 melanoma cells [2]; concentration 200 ppm): +; Whitening degree (B-16 melanoma cells [2]; concentration 300 ppm): ++; Whitening degree (B-16 melanoma cells [2]; concentration 400 ppm): ++
oil-soluble | C=C(C)[C@@H]1CC[C@]2(C(=O)O)CC[C@]3(C)[C@H](CC[C@@H]4[C@@]5(C)CC[C@H](O)C(C)(C)[C@@H]5CC[C@]43C)[C@@H]12 [Betulinic acid, betulinic acid] | 99 | 83 | 76 | 69 | 60 | 51 | + | + | + | + |  |  |  |  |  | − | ± | ± | ± | cell-survival rate at the added concentration showing a whitening degree almost identical to vitamin C-magnesium phosphate at 450 ppm (B-16 melanoma cells [1]; mouse): 99-100%; Cell-Survival Rate (B-16 melanoma cells [1]; mouse, 2 ppm): 100%; Cell-Survival Rate (B-16 melanoma cells [1]; mouse, 4 ppm): 100%; Cell-Survival Rate (B-16 melanoma cells [1]; mouse, 6 ppm): 100%; Cell-Survival Rate (B-16 melanoma cells [1]; mouse, 8 ppm): 100%
 | CC[Si](CC)(CC)OC(=O)[C@]12CCC(C)(C)C[C@H]1C1=CC[C@@H]3[C@@]4(C)C[C@@H](O[Si](CC)(CC)CC)[C@H](O[Si](CC)(CC)CC)C(C)(C)[C@@H]4CC[C@@]3(C)[C@]1(C)CC2 [Compound of Synthesis 3, Triethylsilyl Ester of 2,3-O-Di-Triethylsilyl-Maslinic Acid] |  |  |  |  |  |  | + | + | + | + | 100 | 100 | 100 | 100 | 100 | − | ± | ± | + | Cell-Survival Rate (B-16 melanoma cells [1]; [8]): 100%; Cell-Survival Rate (B-16 melanoma cells [1]; [9]): 100%; Cell-Survival Rate (B-16 melanoma cells [1]; [10]): 94%
oil-soluble | CC1(C)CC[C@]2(CO)CC[C@]3(C)C(=CC[C@@H]4[C@@]5(C)CC[C@H](O)C(C)(C)[C@@H]5CC[C@]43C)[C@@H]2C1 [Erythrodiol, erythrodiol] | 100 | 100 | 100 | 97 | 85 | 72 | ± | ± | + | + |  |  |  |  |  | ± | ± | ± | ± | cell-survival rate at the added concentration showing a whitening degree almost identical to vitamin C-magnesium phosphate at 450 ppm (B-16 melanoma cells [1]; mouse): 99-100%; Cell-Survival Rate (B-16 melanoma cells [1]; mouse, 2 ppm): 100%; Cell-Survival Rate (B-16 melanoma cells [1]; mouse, 4 ppm): 100%; Cell-Survival Rate (B-16 melanoma cells [1]; mouse, 6 ppm): 100%; Cell-Survival Rate (B-16 melanoma cells [1]; mouse, 8 ppm): 100%

SMILES | oil-solubility, in words (Solubility (oil / water)) | Cell-Survival Rate (B-16 melanoma cells [1]; mouse, 10 ppm) [%] | Cell-Survival Rate (B-16 melanoma cells [1]; mouse, 15 ppm) [%] | Cell-Survival Rate (B-16 melanoma cells [1]; mouse, 25 ppm) [%] | Cell-Survival Rate (B-16 melanoma cells [1]; mouse, 50 ppm) [%] | Cell-Survival Rate (B-16 melanoma cells [1]; mouse, 100 ppm) [%] | Cell-Survival Rate (B-16 melanoma cells [1]; mouse, 200 ppm) [%] | Whitening degree (B-16 melanoma cells [2]; concentration 10 ppm) | Whitening degree (B-16 melanoma cells [2]; concentration 15 ppm) | Whitening degree (B-16 melanoma cells [2]; concentration 25 ppm) | Whitening degree (B-16 melanoma cells [2]; concentration 50 ppm) | Cell-Survival Rate (B-16 melanoma cells [1]; [3]) [%] | Cell-Survival Rate (B-16 melanoma cells [1]; [4]) [%] | Cell-Survival Rate (B-16 melanoma cells [1]; [5]) [%] | Cell-Survival Rate (B-16 melanoma cells [1]; [6]) [%] | Cell-Survival Rate (B-16 melanoma cells [1]; [7]) [%] | Whitening degree (B-16 melanoma cells [2]; concentration 2 ppm) | Whitening degree (B-16 melanoma cells [2]; concentration 4 ppm) | Whitening degree (B-16 melanoma cells [2]; concentration 6 ppm) | Whitening degree (B-16 melanoma cells [2]; concentration 8 ppm) | other results
C=C(C)[C@@H]1CC[C@]2(CO)CC[C@]3(C)[C@H](CC[C@@H]4[C@@]5(C)CC[C@H](O)C(C)(C)[C@@H]5CC[C@]43C)[C@@H]12 [Betulin, betulin] | oil-soluble |  |  |  |  |  |  | ± | + | + | + | 100 | 100 | 100 | 100 | 100 | − | − | ± | ± | Cell-Survival Rate (B-16 melanoma cells [1]; [8]): 100%; Cell-Survival Rate (B-16 melanoma cells [1]; [9]): 100%; Cell-Survival Rate (B-16 melanoma cells [1]; [10]): 100%
